How the values were obtained:
CA I = CA I (Homo sapiens, UniProt P00915); settings: intrinsic, 37°C
Description: Intrinsic thermodynamic parameters of all pairs were determined by TSA and ITC (for calculations we used Gibbs energy obtained by TSA and enthalpy from ITC measurements).

CA IX [1] = system: CA IX; design: method as in earlier work; settings: depending on the isozyme, ref Dudutienė et al., 2014, Matulienė et al., 2022, Zakšauskas et al.; cited from earlier work
CA IX [2] = target: T1, CA IX (Homo sapiens, UniProt Q16790); test: Intrinsic Gibbs energy of binding (TSA); settings: 37°C, Fig. 5
T1 construct: made in house

Chain of CA I (P00915 whole entry): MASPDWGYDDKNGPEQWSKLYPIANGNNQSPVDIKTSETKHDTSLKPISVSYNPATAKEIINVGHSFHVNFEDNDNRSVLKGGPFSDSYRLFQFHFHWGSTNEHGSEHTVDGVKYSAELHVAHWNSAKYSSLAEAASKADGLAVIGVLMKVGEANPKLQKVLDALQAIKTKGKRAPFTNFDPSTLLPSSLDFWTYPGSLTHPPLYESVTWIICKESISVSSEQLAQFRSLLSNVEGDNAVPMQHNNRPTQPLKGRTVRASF

| ΔHint (CA I) | intrinsic standard Gibbs energy of binding (CA IX [2]) | SMILES | selectivity toward CA IX over remaining isozymes (CA IX [1]) |
| --- | --- | --- | --- |
| -17.9 kcal/mol | – | CCCSc1c(F)c(F)c(S(N)(=O)=O)c(F)c1F [VD12-05] | – |
| – | -17.9 kcal/mol | COC(=O)c1cc(S(N)(=O)=O)c(SC2CCCCC2)cc1Cl [EA2-3] | a hundred- to a million-fold |
